Laboratory results from patent US20240190843A1, “CRYSTALLINE FORM OF A SHP2 INHIBITOR” (Array BioPharma Inc., priority 2021, published 2024).

Assay: Comparative stability of stored solid samples (HPLC purity, PXRD, appearance after 7 days)
Assay type: physicochemical
Experimental: The chemical stability data using HPLC was evaluated on samples stored at several conditions as listed in Table 6 between free base hemihydrate Form 1 and amorphous form.
HPLC Method • Column: LC\027 Agilent Poroshell 120 EC-C18 150×4.6 mm, 2.7 μm • Column Temperature: 40° C. • Autosampler Temperature: Ambient • UV wavelength: 220 nm • Injection Volume: 4.00 μL • Flow Rate: 1.5 mL/min • Mobile Phase A: 0.02% TFA in H2O • Mobile Phase B: 0.02% TFA in MeCN • Time (minutes) Solvent B [%] • 0 20 • 3 20 • 15 70 • 15.1 95 • 16 95 • 16.1 20 • 20.0 20

Nc1nccc(Sc2cnc(N3CCC4(CC3)Cc3ccccc3[C@H]4N)nn2)c1Cl [Amorphous, (S)-1′-(6-((2-amino-3-chloropyridin-4-yl)thio)-1,2,4-triazin-3-yl)-1,3-dihydrospiro[indene-2,4′-piperidin]-1-amine]
HPLC purity (%) after 7 days (stored at 25° C./60% RH): 82.8% | Observations after 7 days (stored at 25° C./60% RH): Vibrant | PXRD after 7 days (stored at 25° C./60% RH): Amorphous | HPLC purity (%) after 7 days (stored at 40° C./75% RH): 86.7% | Observations after 7 days (stored at 40° C./75% RH): Vibrant | PXRD after 7 days (stored at 40° C./75% RH): Amorphous | HPLC purity (%) after 7 days (stored at 80° C.): 54.7% | Observations after 7 days (stored at 80° C.): Brown | PXRD after 7 days (stored at 80° C.): Amorphous | HPLC purity (%) after 7 days (stored at Ambient): 71.7% | Observations after 7 days (stored at Ambient): Vibrant | PXRD after 7 days (stored at Ambient): Amorphous

Nc1nccc(Sc2cnc(N3CCC4(CC3)Cc3ccccc3[C@H]4N)nn2)c1Cl [Form 1, (S)-1′-(6-((2-amino-3-chloropyridin-4-yl)thio)-1,2,4-triazin-3-yl)-1,3-dihydrospiro[indene-2,4′-piperidin]-1-amine]
HPLC purity (%) after 7 days (stored at 25° C./60% RH): 97.5% | Observations after 7 days (stored at 25° C./60% RH): Yellow | PXRD after 7 days (stored at 25° C./60% RH): Form 1 | HPLC purity (%) after 7 days (stored at 40° C./75% RH): 97.6% | Observations after 7 days (stored at 40° C./75% RH): Yellow | PXRD after 7 days (stored at 40° C./75% RH): Form 1 | HPLC purity (%) after 7 days (stored at 80° C.): 97.1% | Observations after 7 days (stored at 80° C.): Yellow | PXRD after 7 days (stored at 80° C.): Form 1 | HPLC purity (%) after 7 days (stored at Ambient): 97.1% | Observations after 7 days (stored at Ambient): Yellow | PXRD after 7 days (stored at Ambient): Form 1
